Laboratory results: PubChem BioAssay AID1259411 (Chemical Carcinogenesis Research Information System (CCRIS), 2018)
The source made the active and inactive calls. No rule for the calls is given here.

System: rodent carcinogenicity bioassays, tumor incidence
Assay: CCRIS carcinogenicity studies
Settings: Dose: 0, Dose: 0
In short: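 Archive of carcinogenicity, mutagenicity, tumor promotion and tumor inhibition results drawn from journals, NCI reports and other sources, expert-reviewed; covers 1985-2011 and is no longer updated.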

In the case of `[CH3][Hg][Cl]`, the carcinogen call (Species: MOUSE, Strain/Sex: B6C3F1/FEMALE, Route: ORAL, 0.4, 2, 10 PPM IN DIET FOR 104 WK (STUDY DURATION: 104 WK), 0.4, 2, 10 PPM IN DIET FOR 104 WK (STUDY DURATION: 104 WK)) is reported as “inactive; negative”, the carcinogen call (Species: MOUSE, Strain/Sex: B6C3F1/MALE, Route: ORAL, 0.4, 2, 10 PPM IN DIET FOR 104 WK (STUDY DURATION: 104 WK), 0.4, 2, 10 PPM IN DIET FOR 104 WK (STUDY DURATION: 104 WK), Tumor Site: Type of Lesion: KIDNEY: CARCINOMA, ADENOMA) is reported as “active; positive” and the carcinogen call (Species: MOUSE, Strain/Sex: ICR/FEMALE, Route: ORAL, 0.4, 2, 10 PPM IN DIET FOR 104 WK (STUDY DURATION: 104 WK), 0.4, 2, 10 PPM IN DIET FOR 104 WK (STUDY DURATION: 104 WK)) is reported as “inactive; negative”. For the same compound, the carcinogen call (Species: MOUSE, Strain/Sex: ICR/FEMALE, Route: ORAL, 10 PPM IN BASAL DIET ADMINISTERED TO SPAYED MICE FOR 80 WK (STUDY DURATION: 80 WK)) was “inactive; negative”, the carcinogen call (Species: MOUSE, Strain/Sex: ICR/FEMALE, Route: ORAL, 10 PPM IN BASAL DIET FOR 80 WK (STUDY DURATION: 80 WK)) was “inactive; negative” and the carcinogen call (Species: MOUSE, Strain/Sex: ICR/FEMALE, Route: ORAL, 15 PPM IN DIET FOR 78 WK (STUDY DURATION: 78 WK)) was “inactive; negative”. The carcinogen call (Species: MOUSE, Strain/Sex: ICR/MALE, Route: ORAL, 0.4, 2, 10 PPM IN DIET FOR 104 WK (STUDY DURATION: 104 WK), 0.4, 2, 10 PPM IN DIET FOR 104 WK (STUDY DURATION: 104 WK), Tumor Site: Type of Lesion: KIDNEY: ADENOCARCINOMA) was “active; positive”, the carcinogen call (Species: MOUSE, Strain/Sex: ICR/MALE, Route: ORAL, 10 PPM IN BASAL DIET ADMINISTERED TO CASTRATED MICE FOR 80 WK (STUDY DURATION: 80 WK)) was “inactive; negative” and the carcinogen call (Species: MOUSE, Strain/Sex: ICR/MALE, Route: ORAL, 10 PPM IN BASAL DIET FOR 80 WK (STUDY DURATION: 80 WK), Tumor Site: Type of Lesion: KIDNEY: ADENOCARCINOMA) was “active; positive”. For the same compound, the carcinogen call (Species: MOUSE, Strain/Sex: ICR/MALE, Route: ORAL, 15 PPM IN DIET FOR 78 WK (STUDY DURATION: 78 WK), Tumor Site: Type of Lesion: KIDNEY: ADENOCARCINOMA, ADENOMA) was “active; positive”, the carcinogen call (Species: RAT, Strain/Sex: SPRAGUE-DAWLEY/FEMALE, Route: ORAL, 0.4, 2, 10 PPM IN DIET FOR 130 WK (STUDY DURATION: 130 WK), 0.4, 2, 10 PPM IN DIET FOR 130 WK (STUDY DURATION: 130 WK)) was “inactive; negative” and the carcinogen call (Species: RAT, Strain/Sex: SPRAGUE-DAWLEY/MALE, Route: ORAL, 0.4, 2, 10 PPM IN DIET FOR 130 WK (STUDY DURATION: 130 WK), 0.4, 2, 10 PPM IN DIET FOR 130 WK (STUDY DURATION: 130 WK)) was “inactive; negative”.
In the case of `CC1(c2ccc(Oc3ccccc3)cc2)OC(=O)N(Nc2ccccc2)C1=O` (configuration not stated), the carcinogen call (Species: Mouse, Strain/Sex: CRL: CD1 (ICR)BR/Female (60/Group), Route: Oral, 1.0, 9.8, 130, 392 mg/kg/day of 97.4% famoxadone in diet for 18 mo, study duration 18 mo, 1.0, 9.8, 130, 392 mg/kg/day of 97.4% famoxadone in diet for 18 mo, study duration 18 mo) is reported as “inactive; negative”, the carcinogen call (Species: Mouse, Strain/Sex: CRL: CD1 (ICR)BR/Male (60/Group), Route: Oral, 0.7, 6.8, 96, 274 mg/kg/day of 97.4% famoxadone in diet for 18 mo, study duration 18 mo, 0.7, 6.8, 96, 274 mg/kg/day of 97.4% famoxadone in diet for 18 mo, study duration 18 mo) is reported as “inactive; negative” and the carcinogen call (Species: Rat, Strain/Sex: CRL: CD BR/Female (62/Group), Route: Oral, 0.53, 2.15, 10.7, 23.0 mg/kg/day of 97.4% famoxadone in diet for 24 mo, study duration 24 mo, 0.53, 2.15, 10.7, 23.0 mg/kg/day of 97.4% famoxadone in diet for 24 mo, study duration 24 mo) is reported as “inactive; negative”. The carcinogen call (Species: Rat, Strain/Sex: CRL: CD BR/Male (62/Group), Route: Oral, 0.42, 1.62, 8.4, 16.8 mg/kg/day of 97.4% famoxadone in diet for 23 mo, study duration 23 mo, 0.42, 1.62, 8.4, 16.8 mg/kg/day of 97.4% famoxadone in diet for 23 mo, study duration 23 mo) was “inactive; negative”.
With `Clc1ccc(-c2cc(Cl)c(Cl)cc2Cl)cc1Cl` the carcinogen call (Species: Rat, Strain/Sex: Harlan Sprague-Dawley/Female (80/Group), Route: Oral, 100, 220, 460, 1000, 4600 ug/kg in corn oil, by gavage, 5 d/wk for 2 yr, 100, 220, 460, 1000, 4600 ug/kg in corn oil, by gavage, 5 d/wk for 2 yr, Tumor Site: Type of Lesion: Liver: cholangiocarcinoma (0/52, 0/51, 0/52, 0/52, 3/52, 36/49, 29/49), hepatocellular adenoma (0/52, 1/51, 1/52, 4/52) was “active; positive”.
With `O[C@H]1[C@@H]2O[C@@H]2C=C[C@@H]1O` the carcinogen call (Species: MOUSE, Strain/Sex: SWISS/FEMALE, Route: INTRAPERITONEAL, 2.7, 13.7 UMOL ADMINISTERED AS 3 UNEQUAL DOSES (1/7, 2/7, AND 4/7 OF THE TOTAL DOSE) OVER A 2-WK PERIOD (STUDY DURATI, 2.7, 13.7 UMOL ADMINISTERED AS 3 UNEQUAL DOSES (1/7, 2/7, AND 4/7 OF THE TOTAL DOSE) OVER A 2-WK PERIOD (STUDY DURATI) was “inactive; negative” and the carcinogen call (Species: MOUSE, Strain/Sex: SWISS/MALE, Route: INTRAPERITONEAL, 2.7, 13.7 UMOL ADMINISTERED AS 3 UNEQUAL DOSES (1/7, 2/7, AND 4/7 OF THE TOTAL DOSE) OVER A 2-WK PERIOD (STUDY DURATI, 2.7, 13.7 UMOL ADMINISTERED AS 3 UNEQUAL DOSES (1/7, 2/7, AND 4/7 OF THE TOTAL DOSE) OVER A 2-WK PERIOD (STUDY DURATI) was “inactive; negative”.
With `CC(C)NCCCC1(C(N)=O)c2ccccc2-c2ccccc21` the carcinogen call (Species: MOUSE, Strain/Sex: B6C3F1/FEMALE, Route: ORAL, 0.02, 0.04, 0.08% IN DIET FOR APPROXIMATE DAILY DOSES OF 0, 27, 53, 113 MG/KG (STUDY DURATION: 2 YR), 0.02, 0.04, 0.08% IN DIET FOR APPROXIMATE DAILY DOSES OF 0, 27, 53, 113 MG/KG (STUDY DURATION: 2 YR)) was “inactive; negative”, the carcinogen call (Species: MOUSE, Strain/Sex: B6C3F1/MALE, Route: ORAL, 0.02, 0.04, 0.08% IN DIET FOR APPROXIMATE DAILY DOSES OF 0, 27, 53, 113 MG/KG (STUDY DURATION: 2 YR), 0.02, 0.04, 0.08% IN DIET FOR APPROXIMATE DAILY DOSES OF 0, 27, 53, 113 MG/KG (STUDY DURATION: 2 YR)) was “inactive; negative” and the carcinogen call (Species: RAT, Strain/Sex: F344/FEMALE, Route: ORAL, 0.02, 0.04, 0.08% IN DIET FOR APPROXIMATE DAILY DOSES OF 0, 9, 18, 37 MG/KG (STUDY DURATION: 2 YR), 0.02, 0.04, 0.08% IN DIET FOR APPROXIMATE DAILY DOSES OF 0, 9, 18, 37 MG/KG (STUDY DURATION: 2 YR)) was “inactive; negative”. For the same compound, the carcinogen call (Species: RAT, Strain/Sex: F344/MALE, Route: ORAL, 0.02, 0.04, 0.08% IN DIET FOR APPROXIMATE DAILY DOSES OF 0, 9, 18, 37 MG/KG (STUDY DURATION: 2 YR), 0.02, 0.04, 0.08% IN DIET FOR APPROXIMATE DAILY DOSES OF 0, 9, 18, 37 MG/KG (STUDY DURATION: 2 YR)) was “inactive; negative”.
In the case of `CC(C)([CH2][Sn]([CH2]C(C)(C)c1ccccc1)([CH2]C(C)(C)c1ccccc1)[O][Sn]([CH2]C(C)(C)c1ccccc1)([CH2]C(C)(C)c1ccccc1)[CH2]C(C)(C)c1ccccc1)c1ccccc1`, the carcinogen call (Species: Mouse, Strain/Sex: Unspecified strain/Female (96/Control group; 48/Experimental group), Route: Oral, 50, 100, 300, 600 ppm of 97% fenbutatin oxide in the diet for 18 mo, study duration 18 mo, 50, 100, 300, 600 ppm of 97% fenbutatin oxide in the diet for 18 mo, study duration 18 mo) is reported as “inactive; negative”, the carcinogen call (Species: Mouse, Strain/Sex: Unspecified strain/Male (96/Control group; 48/Experimental group), Route: Oral, 50, 100, 300, 600 ppm of 97% fenbutatin oxide in the diet for 18 mo, study duration 18 mo, 50, 100, 300, 600 ppm of 97% fenbutatin oxide in the diet for 18 mo, study duration 18 mo) is reported as “inactive; negative” and the carcinogen call (Species: Rat, Strain/Sex: Carworth Farm E/Female (96/Control group; 48/Experimental group), Route: Oral, 50, 100, 300, 600 ppm of 97% fenbutatin oxide in the diet for 2 yr, study duration 2 yr, 50, 100, 300, 600 ppm of 97% fenbutatin oxide in the diet for 2 yr, study duration 2 yr) is reported as “inactive; negative”. For the same compound, the carcinogen call (Species: Rat, Strain/Sex: Carworth Farm E/Male (96/Control group; 48/Experimental group), Route: Oral, 50, 100, 300, 600 ppm of 97% fenbutatin oxide in the diet for 2 yr, study duration 2 yr, 50, 100, 300, 600 ppm of 97% fenbutatin oxide in the diet for 2 yr, study duration 2 yr) was “inactive; negative”.
